We go through five compounds from patent US11298366B2, “Ibandronate conjugates of nucleoside antimetabolites” (MBC Pharma, Inc., priority 2017, dated 2022).

Assay [1] concerns 22 RV1-Luc+ prostate cancer cells. Briefly: Survival and tumor imaging in a rodent model of prostate cancer induced bone disease (intratibial 22 RV1-Luc+ cells). In kind it is in vivo, male SCID mice. The method, then:
Six-week old male SCID mice were injected with 10 uL of 10^6 22 RV1-Luc+ prostate cancer cells into the tibia. Luminescence on day 6 confirmed implantation and mice were randomized into groups of 10 and began dosing on day 7. Mice received intraperitoneal injections 5 days/week of saline or 2 mg/kg gemcitibine-ibandronate conjugate (compound 5, example 1) until the end of week 6 and were imaged every 7 days. A Xenogen imaging station was used to visualize tumor cells; the heat map from light blue to red indicates increasing tumor cells numbers.

Assay [2] concerns MDA-MB-231-luc-D3H2LN cells. Briefly: Survival in a rodent model of breast cancer (intracardiac injection of MDA-MB-231-luc-D3H2LN cells). In kind it is in vivo, Female Harlan nude mice (Hsd:Athymic Nude-Foxn1nu). Conditions: for effect on survival (Kaplan-Meier, FIG. 1): intraperitoneal QDx5 from day 22 after implantation, 5 mg/kg gemcitabine-ibandronate conjugate, 6 mg/mg gemcitabine-etidronate conjugate, equimolar free etidronate, ibandronate, gemcitabine, groups of 10. On the procedure:
FIG. 1 provides Kaplan-Meier survival curves: a murine model of breast cancer of mice treated with saline gemcitabine-ibandronate conjugate (GEM-IB) or gemcitabine-etidronate conjugate (GEM-ET).
Female Harlan nude mice (Hsd:Athymic Nude-Foxn1nu) of 8 weeks age were administered a 100 uL intracardiac injection of MDA-MB-231-luc-D3H2LN cells (Caliper/Xenogen) at106 cells/mL in Dulbecco's Phosphate Buffered Saline. Twenty-two days after implantation the animals were randomized into groups of 10. Each group received one of the following agents 5 days per week (QDx5) as a 100 uL intraperitoneal injection to achieve a dosing of: saline, 5 mg/kg gemcitabine-ibandronate conjugate, 6 mg/mg gemcitabine-etidronate conjugate, equimolar free etidronate, equimolar free ibandronate, equimolar free gemcitabine.

Assay [3] concerns 22 RV1-Luc+ prostate cancer cells. Briefly: Incidence of distal metastases in a rodent model of prostate cancer induced bone disease (intratibial 22 RV1-Luc+ cells). In kind it is in vivo, male SCID mice. The following applies: day 34 and day 41; for percent of mice with distal metastases (FIG. 3): 2 mg/kg gemcitabine-ibandronate conjugate or molar equivalent, intraperitoneal QDx5 from day 7, versus saline. On the procedure:
Mice were treated with saline, or equimolar doses of ibandronate (Iband), gemcitabine (Gem), gemcitabine-etidronate conjugate (Gem-Eti), or with the gemcitabine-ibandronate conjugate 5 (Gem-Ibad).
As above in example 5, six-week old male SCID mice were injected with 10 uL of 10^6 22 RV1-Luc+ prostate cancer cells into the tibia. Luminescence on day 6 confirmed implantation and mice were randomized into groups of 10-13 and began dosing on day 7. Mice received intraperitoneal injections QDx5 (5 days/week) of saline or 2 mg/kg gemcitibine-ibandronate conjugate or the molar equivalent of gemcitabine-etidronate conjugate, free ibandronate, or free gemcitibine until the end of week 6 and were imaged every 7 days. A Xenogen imaging station was used to visualize tumor cells and metastases distal to the tibial site of implantation.

Consider `CCCCCN(C)CCC(O)(P(=O)(O)O)P(=O)(O)OP(=O)(O)OC[C@H]1O[C@@H](n2ccc(N)nc2=O)C(F)(F)C1O` (some centres unmarked) [conjugate 5, Gemcitabine-Ibandronate Conjugate], for which the “mice alive at the end of 42 days (FIG. 2)” value in assay [1] (2 mg/kg intraperitoneal 5 days/week from day 7 until end of week 6, groups of 10, saline control 6 of 10 alive) is reported as “all mice treated with the compound 5 (example 1) were alive”. Moreover, the “cancer cells present by Xenogen image analysis” value in assay [1] (2 mg/kg intraperitoneal 5 days/week, from day 28 and later, versus saline) is “less cancer cells are present”. In addition, the “survival benefit compared with the other treatments” value in assay [2] (intraperitoneal QDx5, 5 mg/kg gemcitabine-ibandronate conjugate versus 6 mg/mg gemcitabine-etidronate conjugate) is given as “greatest benefit”. Besides, the “effect on survival (Kaplan-Meier, FIG. 1)” value (“effect on survival” below) in assay [2] is given as “improved survival”. The “percent of mice with distal metastases (FIG. 3)” value in assay [3] is “reduced the percent of mice with distal metastases”. Also, the “benefit on distal metastases compared with the other treatments” value in assay [3] (2 mg/kg intraperitoneal QDx5) is reported as “superior benefit”.
Regarding `CC(O)(P(=O)(O)O)P(=O)(O)O` [etidronate], in assay [2], the “effect on survival” value was “did not have a significant effect on survival”.
As for `Nc1ccn([C@@H]2O[C@H](CO)[C@@H](O)C2(F)F)c(=O)n1` [gemcitabine, Gemcitabine], the “effect on survival” value in assay [2] is reported as “did not have a significant effect on survival”.
On the same count and under the same terms, under `CCCCCN(C)CCC(O)(P(=O)(O)O)P(=O)(O)O` [ibandronate] stands “did not have a significant effect on survival”.
Take “gemcitabine-etidronate conjugate [reference compound]”: the “effect on survival” value in assay [2] is reported as “improved survival”. In addition, in assay [3], the “percent of mice with distal metastases (FIG. 3)” value is given as “reduced the percent of mice with distal metastases”.
